Measured values from patent publication US20200237871A1, “METHODS FOR MITIGATING LIVER INJURY AND PROMOTING LIVER HYPERTROPHY, REGENERATION AND CELL ENGRAFTMENT IN CONJUNCTION WITH RADIATION AND/OR RADIOMIMETIC TREATMENTS” (Janssen Pharmaceutica NV, priority 2019, published 2020).

Tests used:
[1] = test system: DPPIV−/− knockout mice; assay: LSEC engraftment/repopulation of irradiated liver by DPPIV staining (Examples 2 and 3); assay type: in vivo, mouse; conditions: targeted liver irradiation (50 Gy)
Experimental: 8-12-week-old male and female Di-peptyl peptidase IV (DPPIV) −/− knockout mice and 8-12-week-old male and female C57Bl6 mice were used in this study. Animals were weighed in the beginning of the experiment and before tissue collection. All animals were housed in the Institute for Animal Studies at Albert Einstein College of medicine and fed regular rodent chow. All experiments were performed to according to protocols approved by Institutional Animal Care and Use Committee at Albert Einstein College of Medicine. Animals were made cirrhotic using CCl4 administration (intraperitoneal [IP] injections twice a week for at least 11 weeks).
Image-guided external beam irradiation was performed using a small animal radiation research platform (SARRP, Xstrahl Inc., Suwanee, Ga.). Mice were given gastrografin contrast through gavage to improve visualization of the gastrointestinal (GI) tract. After approximately 2 minutes, mice were positioned on a tubular couch and anesthetized with ˜2% Isofluorane (Isothesia, USP) in 2 L/min pure oxygen. A cone-beam computed tomography (CBCT) scan was acquired and a treatment plan irradiating the median lobe and right lobe was generated using the MuriPlan software. […] Within the targeted lobes, the position of the isocenter was chosen to minimize irradiation of the GI tract, spine, and heart (the maximum dose to these organs was kept below 10 Gy). Targets were irradiated with 50 Gy X-rays at 220 kVp energy and 13 mA tube current (dose rate of 2.4-2.5 Gy/min) using a 1 mm copper filter for beam hardening.
TPOm was diluted in sterile PBS to a 10 mg/ml stock. The stock was stored at −20° C. and allowed to come to room temperature prior to administration. TPOm was administered as a single dose (300 μg/kg) via subcutaneous injection 10 minutes after the transplant procedure.
DPPIV was selected as a marker for engraftment of exogenous LSECs in the DPPIV (−/−) animals. […] Slide imaging was done using a Perkin Elmer P250 High Capacity Slide Scanner.
LSECs were isolated from the single-cell suspension using CD146 microbeads (Miltenyi Biotec GmbH #130-092-007).
Following isolation of LSECs, 500×10^5 LSECs are transplanted via intrasplenic injection into healthy adult mice anesthetized with Isoflurane (Isothesia, USP) 24 hrs post HIR. Buprenorphine is given post-op as an analgesic.
To test the efficacy of TPOm as an agent that can cause LSEC engraftment, DPPIV−/− knockout mice received 50GY hepatic irradiation (HIR) to the median and right lobes of the liver using external-beam CT-guided x-ray irradiation, and LSECs that express DPPIV (FIG. 2A).
The methods were identical to those described above with the exception that the LSEC transplant was administered 4-5 days post irradiation and the TPOm or Romiplostim were administered approximately 10 minutes post LSEC transplant.

[2] = test system: DPPIV KO mice; assay: Engraftment of transplanted LSECs and hepatocytes by DPPIV immunostaining after HIR (Example 7); assay type: in vivo, mouse; conditions: Study A; 2 months after HIR; 50 Gy; LSECs 4 or 5 days after HIR; 300 μg/kg intraperitoneally 10 minutes after LSEC transplantation
Experimental: 8-12-week-old male Di-peptyl peptidase IV knockout (Dppiv^−/−) mice and 8-12-week-old male C57BL/6 mice were used in this study.
The methods were identical to Experiment 5 as described above; including the preparation of test articles (solutions of RWJ-800088), isolation and transplant of LSECs, and Hepatic irradiation. In addition, Romiplostim was purchased from pharmacy and came in 250 μg powder. It was reconstituted per manufacturers description using solvent for solution for injection. After reconstitution, a deliverable volume of 0.5 mL solution contained 250 μg of romiplostim (500 μg/mL).
Animals were weighed in the beginning of the experiment.
The mice were transplanted with DPPIV^+ 5×10^5 liver sinusoidal endothelial cells (LSECs) intrasplenically 4 or 5 days later. The mice were then injected with 300 μg/kg of RWJ-800088 or Romiplostim intraperitoneally 10 minutes after LSEC transplantation as shown in Table 7.
The mice were then monitored until they made a full recovery and returned to the cage. The mice were followed for 2 and 5 months and necropsied. The liver was excised and prepared for the frozen section. The immunostaining of DPPIV activity was performed to examine the repopulation of the transplanted DPPIV^+ cells in the liver. […]

For romiplostim [reference compound], the “Engraftment when LSEC transplant is administered 24 hours post irradiation” value [1] was “Yes”, the “Engraftment when LSEC transplant is administered 4-5 days post irradiation” value ([1]; drug approximately 10 minutes post LSEC transplant) was “Yes” and the “repopulation of LSECs in the irradiated liver tissue (DPPIV immunostaining)” value [2] was “repopulation of LSECs in the irradiated liver tissue was observed”.
